Measurements as given in patent US10676507B2, “Peptide and composition containing the same for anti-inflammation, anti-fibrosis, wound healing, and anticancer treatment” (GemVax & KAEL CO., LTD., priority 2015, dated 2020).

What was measured:
TGF-β = test: Western blotting of TGF-β signaling inhibition (pSmad2/3, Smad2/3) in HepG2 cell line; format: cell-based, human; details: 10 μM peptide
Experimental: To identify an inhibitory effect of TGF-β, considered as the main cause of fibrosis, of the novel peptides Pep-WH-1 to Pep-WH-12, an experiment for confirming a TGF-β signaling inhibitory action in a HepG2 cell line was carried out as follows.
Reagents and materials used in the present experiment are as follows. Powder-type novel peptides were dissolved in 0.2 μm filtered sterile water, and then stored in the form of aliquots at −70° C., and, when in use, the stored peptides were thawed. A HepG2 cell line (ATCC HB-8065; American Type Culture Collection) was used, and recombinant human TGF-β was dissolved in 4 mM HCl to prepare a 10 μg/mL stock. SB431542 (Sigma) as a positive control was used after being prepared into 10 mM stock.
2×10^6 HepG2 cells (ATCC HB-8065) were seeded in a 60 mm petri dish, and then cultured in a CO2 incubator for 16 hours. Subsequently, the medium was replaced by a serum-free medium (SFM) and further cultured for 24 hours. Thereafter, the medium was replaced with 10 ng/mL of TGF-β1, and the HepG2 cells were treated with each of the novel peptides at each concentration (1 μM and 10 μM) and then cultured for 72 hours. Groups treated with the respective novel peptides were further cultured in a CO2 incubator at 37° C. for 1 hour.
To measure anti-fibrotic activities of the novel peptides, an experiment for measuring a degree of TGF-β signaling inhibition was carried out by western blotting, and a detailed description of the experimental method is as follows.
Cells treated with each peptide were washed twice with PBS, collected in a 1.5 mL EP tube using a cell scraper, and then centrifuged using a centrifugal separator (1,000 rpm, 4° C., 2 minutes) to remove the supernatant, and then 100 μL each was added to RIPA-treated HepG2 cells. The HepG2 cells were incubated on ice for 40 minutes, and then mixed by shaking every 10 minutes (vertex, micro-centrifuge pre-cooled to 4° C.), and each sample was mixed 40 times to 50 times using a 1 mL syringe. Lastly, the resulting mixture was centrifuged at 13,000 rpm for 15 minutes and the obtained supernatant was used.
30 μg of protein was subjected to 8% sodium dodecyl sulfate-polyacrylamide gel electrophoresis (SDS-PAGE) to be transferred to polyvinylidene difluoride (PVDF) membranes (Millipore). The PVDF membranes were blocked with 5% skim milk and incubated with particular primary antibodies. The antibodies used in this experiment are as follows: Smad 2/3 (60, 52 kDa, 5% BSA 1:1000, #3102, Cell signaling), pSmad2/3 (cell signaling #3102), and GAPDH (37 kDa, 5% BSA 1:1000, #2118, Cell signaling). Subsequently, the PVDF membranes were washed with tris-buffered saline containing 0.1% Tween-20 (TBST), and then reacted with an HRP-conjugated anti-rabbit antibody (manufactured by Jackson ImmunoResearch Laboratories, Inc.). Afterwards, ECL detection (Amersham Pharmacia Biotech) was performed thereon, and the acquired images were analyzed using an image analyzer (GE Healthcare, ImageQuant LAS 4000).
To measure TGF-β inhibitory effects, pSmad2/3 and Smad2/3 were used as TGF-β signaling activity markers, and GAPDH was used as a reference group in electrophoresis. The TGF-β signaling activity markers which were expressed at a high concentration as TGF-β was inhibited were used.
(§1) All data are expressed as mean±S.E.M., and statistical processing was performed by an ANOVA test. The SigmaStat statistical program was used and statistical analysis was performed using a Kruskal-Wallis test and a Mann-Whitney U-test. In addition, comparison between the groups was performed using a Tukey test and a p value less than 0.05 was determined as statistically significant.

wound-induced SD rats = test: Wound area in full-thickness excision wound-induced animal model; format: in vivo, Sprague-Dawley (SD) rats; details: 50 μL of 100 μg/mL applied every two days
Experimental: To confirm wound healing effects of the novel peptides Pep-WH-8, Pep-WH-9, Pep-WH-11, and Pep-WH-1, a wound-induced animal model was treated with each of the novel peptides, and then an experiment to confirm an effect of each peptide in producing collagen needed for a decrease in wound size and in a wound healing process was carried out as follows.
Sprague-Dawley (SD) rats were selected because mice have thin skins and it is difficult to uniformly induce a wound in mice. To exclude effects due to hormonal changes, male SD rats were selected and 6-week-old SD rats were purchased and acclimated for about 1 week. However, to more precisely obtain experimental results, an experiment was carried out after the 6-week-old SD rats became 11 weeks old. Since experimental animals are sensitive to olfactory responses and may attack other individual, individuals were separated from each other after wounds were formed, such as 1 rat for each cage, and observed.
The following method was used to form full-thickness excision in the prepared experimental animals. To induce anesthesia, a mixture of 10 mg/kg (body weight) of xylazine-HCl and 100 mg/kg (body weight) of ketamine HCl were intraperitoneally injected into the experimental animals or the experimental animals were administered the mixture via a respiratory anesthesia system. After the induction of anesthesia, hairs on the back of the experimental animal in a prone position were shaved cleanly, the back was disinfected with betadine, and then one circular full-thickness excision was made on a site apart from the highest portion of the back to each of left and right sides by a distance of about 1 cm, using a 16 mm punch. Separate dressing was not performed on the wound sites.
The full-thickness excision-induced animal model was divided into the following groups and a drug was applied on each group immediately after the formation of the excision and every two days. For the application method, a material was adjusted to a concentration of 1 mg/mL, and then, immediately before the experiment, the material was diluted 10 times to a concentration of 100 μg/mL. 50 μL of the material was applied dropwise on each excision.
[…] When the wounds were completely healed, the wound healing date was recorded. Generally, on about day 9, individuals with the wound sizes decreased to 5% of the initial wounds began to appear. The wound sites were photographed with a ruler, and then the acquired images were analyzed using the Image J program (NIH, USA) to calculate wound areas, and the wound areas were compared with each other.

TNF-α [1] = test: ELISA of TNF-α amounts in LPS-induced THP-1 cells; format: cell-based, human; details: all the concentrations (1 μM, 5 μM, 10 μM); FIG. 2
Experimental: (§2) An experiment was carried out using THP-1 cells (American Type Culture Collection (ATCC), Manassas, Va., USA), which is a human acute monocytic leukemia cell line. THP-1 cells were suspended in RPMI 1640 medium to a concentration of 1×10^5 cells per well in a 96 well plate and incubated for 24 hours. At this time, the THP-1 cells were treated with phorbol 12-myristate 13-acetate (PMA) (Sigma) to differentiate into macrophages.
The ELISA test method was as follows. THP-1, which is a monocyte cell line distributed from ATCC, was sub-cultured and prepared in the P3 stage, and the cell line was distributed into wells of a well plate and treated with PMA to differentiate into macrophages. The differentiated cells were treated with LPS to induce an inflammatory reaction (to induce the production of TNF-alpha), and were treated with each of the novel peptides at each concentration (1 μM, 5 μM, and 10 μM), and the amounts of TNF-α were measured by ELISA. Relative values for a non-inflammation group and a complete inflammation group were calculated, and estrogen (E2) was set as a positive control and a non-treated cell line not treated with the novel peptides was set as a general control to perform comparative analysis. E2 is known as a steroid that inhibits the production of TNF-α in THP-1.
as §1, with “mean±standard error of the mean (S.E.M.),” for “mean±S.E.M.,”, “A” for “The”

TNF-α [2] = test: RT-qPCR of TNF-α mRNA expression in LPS-treated THP-1 cells; format: cell-based, human; details: 1 μM, the lowest treatment concentration; FIG. 1
Experimental: as §2
The RT-qPCR test method was as follows. THP-1 cells were plated on a 6-well plate at a concentration of 2×10^6 cells/well and treated with 100 ng/mL of PMA for 24 hours to differentiate into macrophages. The media were removed and the differentiated THP-1 cells were washed twice with serum-free media (SFM), and then each novel peptide was treated with 10 ng/mL of LPS at each concentration of 1 μM, 5 μM, and 10 μM for 6 hours. RNA was extracted using RNeasy® Plus Mini Kit (Qiagen), and the extracted RNA was quantified and then cDNA synthesis was performed using a Reverse Transcription System (Promega). […]
All data are expressed as mean±standard error of the mean (S.E.M.), and statistical processing was performed by an ANOVA test. […] In addition, comparison between the groups was performed using a Tukey test and a p value less than 0.05 was determined as statistically significant.

[3] = day 3 after full-thickness excision
[4] = day 1 after full-thickness excision

Substance | TGF-β inhibitory activity compared to positive control 10 μM SB431542 (TGF-β) | inflammation-inducing activity (TNF-α amount) compared to E2 positive control (TNF-α [1]) | other results
ALSSRLRF (Pep-WH-3 peptide) | higher TGF-β inhibitory activity |  | 
ALSTRLRA (Pep-WH-4 peptide) | higher TGF-β inhibitory activity |  | 
ALSTRLRF (Pep-WH-6 peptide) | higher TGF-β inhibitory activity |  | 
ALSTRLRG (Pep-WH-5 peptide) | higher TGF-β inhibitory activity |  | 
ALTSKLRF (Pep-WH-12 peptide) | higher TGF-β inhibitory activity | lower inflammation-inducing activity | wound size compared to control (wound-induced SD rats; [3]): smaller wound size
ALTSRVRA (Pep-WH-7 peptide) | higher TGF-β inhibitory activity |  | 
ALTSRVRF (Pep-WH-9 peptide) |  | lower inflammation-inducing activity | wound size compared to control (wound-induced SD rats; [4]): smaller wound size
ALTSRVRG (Pep-WH-8 peptide) |  | lower inflammation-inducing activity | wound size compared to control (wound-induced SD rats; [3]): smaller wound size
Pep-WH-11: novel peptide prepared by the same method as Pep-WH-1; sequence not printed in Table 2 (ALSTRLRG; Pep-WH-11 peptide) |  | lower inflammation-inducing activity | wound size compared to control (wound-induced SD rats; [4]): smaller wound size; anti-inflammatory activity (TNF-α mRNA inhibition), comparison among peptides (TNF-α [2]): highest anti-inflammatory activity
